What was measured:
FGFR2 = FGFR2 (Homo sapiens, UniProt P21802); assay: Kinase enzyme activity assay (mobility shift assay, Carna); conditions: for Percentage inhibition of kinase enzyme activity: FGFR2, 1 µmol/L of BTK inhibitor
LYNb = molecular target: T1, LYNb (Homo sapiens, UniProt P07948); assay: Kinase panel profiling at 1 µmol/L (mobility shift assay, Carna); format: biochemical; conditions: 1 µmol/L of BTK inhibitor
T1 construct: purchased Carna Biosciences

RON = molecular target: T2, RON (Homo sapiens, UniProt Q04912); assay: as above; format: biochemical; conditions: 1 µmol/L of BTK inhibitor
T2 construct: purchased Carna Biosciences

PKD3 = molecular target: T3, PKD3 (Homo sapiens, UniProt O94806); assay: as above; format: biochemical; conditions: 1 µmol/L of BTK inhibitor
T3 construct: purchased Carna Biosciences
T3 sequence (O94806 1-890): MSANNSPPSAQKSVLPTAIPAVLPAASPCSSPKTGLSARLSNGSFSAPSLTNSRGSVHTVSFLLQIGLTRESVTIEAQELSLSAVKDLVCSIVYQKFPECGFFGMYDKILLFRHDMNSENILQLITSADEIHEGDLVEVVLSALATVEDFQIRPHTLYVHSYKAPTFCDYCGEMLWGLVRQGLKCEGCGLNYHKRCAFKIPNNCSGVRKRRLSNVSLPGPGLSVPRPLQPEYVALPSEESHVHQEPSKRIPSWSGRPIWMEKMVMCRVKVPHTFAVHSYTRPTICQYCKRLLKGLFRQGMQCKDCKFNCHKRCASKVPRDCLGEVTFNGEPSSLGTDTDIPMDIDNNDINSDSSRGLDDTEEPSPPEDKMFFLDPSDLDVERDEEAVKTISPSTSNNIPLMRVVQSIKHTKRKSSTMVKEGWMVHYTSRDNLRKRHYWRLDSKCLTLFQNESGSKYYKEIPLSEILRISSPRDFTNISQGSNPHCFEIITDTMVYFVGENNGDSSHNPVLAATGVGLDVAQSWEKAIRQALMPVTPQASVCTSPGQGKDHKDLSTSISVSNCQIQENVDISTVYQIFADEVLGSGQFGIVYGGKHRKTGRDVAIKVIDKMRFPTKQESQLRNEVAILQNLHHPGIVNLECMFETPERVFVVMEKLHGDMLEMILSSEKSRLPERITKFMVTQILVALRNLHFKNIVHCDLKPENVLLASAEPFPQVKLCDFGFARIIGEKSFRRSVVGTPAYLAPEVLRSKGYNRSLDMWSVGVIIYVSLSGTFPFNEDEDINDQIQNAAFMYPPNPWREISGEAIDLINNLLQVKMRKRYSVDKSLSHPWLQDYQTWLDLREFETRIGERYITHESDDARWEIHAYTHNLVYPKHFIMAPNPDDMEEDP

CK2α1/β = molecular target: T4, CK2α1/β (Homo sapiens, UniProt P68400); assay: as above; format: biochemical; conditions: 1 µmol/L of BTK inhibitor
T4 construct: purchased Carna Biosciences

MSK2 = molecular target: T5, MSK2 (Homo sapiens, UniProt O75676); assay: as above; format: biochemical; conditions: 1 µmol/L of BTK inhibitor
T5 construct: purchased Carna Biosciences

ARG = molecular target: T6, ARG (Homo sapiens, UniProt P42684); assay: as above; format: biochemical; conditions: 1 µmol/L of BTK inhibitor
T6 construct: purchased Carna Biosciences

TEC = molecular target: T7, TEC (Homo sapiens, UniProt P42680); assay: Kinase enzyme activity assay (mobility shift assay, Carna); conditions: for Percentage inhibition of kinase enzyme activity: TEC, 1 µmol/L of BTK inhibitor
T7 sequence (P42680 1-631): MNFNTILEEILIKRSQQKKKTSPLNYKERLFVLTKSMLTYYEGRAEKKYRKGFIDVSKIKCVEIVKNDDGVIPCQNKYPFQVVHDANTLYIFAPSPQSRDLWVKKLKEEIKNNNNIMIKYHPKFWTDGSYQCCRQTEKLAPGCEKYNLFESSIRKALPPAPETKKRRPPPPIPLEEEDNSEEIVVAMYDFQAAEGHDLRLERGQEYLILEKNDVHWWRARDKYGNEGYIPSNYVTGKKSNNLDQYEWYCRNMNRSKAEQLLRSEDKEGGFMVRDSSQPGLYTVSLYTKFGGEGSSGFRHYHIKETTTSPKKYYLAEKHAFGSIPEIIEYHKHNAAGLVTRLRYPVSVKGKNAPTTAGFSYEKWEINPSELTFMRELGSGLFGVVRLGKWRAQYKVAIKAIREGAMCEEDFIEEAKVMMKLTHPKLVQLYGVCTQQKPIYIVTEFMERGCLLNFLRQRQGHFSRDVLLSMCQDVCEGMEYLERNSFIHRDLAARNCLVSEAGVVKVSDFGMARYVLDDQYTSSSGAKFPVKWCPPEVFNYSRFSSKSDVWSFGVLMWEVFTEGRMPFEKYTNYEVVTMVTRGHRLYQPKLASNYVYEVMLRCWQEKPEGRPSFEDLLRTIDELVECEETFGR

GSK3β = molecular target: T8, GSK3β (Homo sapiens, UniProt P49841); assay: Kinase panel profiling at 1 µmol/L (mobility shift assay, Carna); format: biochemical; conditions: 1 µmol/L of BTK inhibitor
T8 construct: purchased Carna Biosciences

PAK5 = molecular target: T9, PAK5 (Homo sapiens, UniProt Q9P286); assay: as above; format: biochemical; conditions: 1 µmol/L of BTK inhibitor
T9 construct: purchased Carna Biosciences

p38δ = molecular target: T10, p38δ (Homo sapiens, UniProt O15264); assay: as above; format: biochemical; conditions: 1 µmol/L of BTK inhibitor
T10 construct: purchased Carna Biosciences
T10 sequence (O15264 1-365): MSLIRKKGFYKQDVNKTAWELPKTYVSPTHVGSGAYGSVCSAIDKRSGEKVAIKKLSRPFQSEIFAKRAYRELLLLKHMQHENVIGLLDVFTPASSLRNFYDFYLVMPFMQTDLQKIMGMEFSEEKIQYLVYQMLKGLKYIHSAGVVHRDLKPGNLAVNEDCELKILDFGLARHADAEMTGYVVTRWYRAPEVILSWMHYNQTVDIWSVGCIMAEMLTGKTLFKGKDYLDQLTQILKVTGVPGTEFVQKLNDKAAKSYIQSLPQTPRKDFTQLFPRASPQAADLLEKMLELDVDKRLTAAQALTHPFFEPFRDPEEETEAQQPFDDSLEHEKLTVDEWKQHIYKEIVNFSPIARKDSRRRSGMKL

MARK2 = molecular target: T11, MARK2 (Homo sapiens, UniProt Q7KZI7); assay: as above; format: biochemical; conditions: 1 µmol/L of BTK inhibitor
T11 construct: purchased Carna Biosciences

PKCα = molecular target: T12, PKCα (Homo sapiens, UniProt P17252); assay: as above; format: biochemical; conditions: 1 µmol/L of BTK inhibitor
T12 construct: purchased Carna Biosciences

PLK3 = molecular target: T13, PLK3 (Homo sapiens, UniProt Q9H4B4); assay: as above; format: biochemical; conditions: 1 µmol/L of BTK inhibitor
T13 construct: purchased Carna Biosciences

LTK = molecular target: T14, LTK (Homo sapiens, UniProt P29376); assay: as above; format: biochemical; conditions: 1 µmol/L of BTK inhibitor
T14 construct: purchased Carna Biosciences

T6 sequence (P42684 whole entry): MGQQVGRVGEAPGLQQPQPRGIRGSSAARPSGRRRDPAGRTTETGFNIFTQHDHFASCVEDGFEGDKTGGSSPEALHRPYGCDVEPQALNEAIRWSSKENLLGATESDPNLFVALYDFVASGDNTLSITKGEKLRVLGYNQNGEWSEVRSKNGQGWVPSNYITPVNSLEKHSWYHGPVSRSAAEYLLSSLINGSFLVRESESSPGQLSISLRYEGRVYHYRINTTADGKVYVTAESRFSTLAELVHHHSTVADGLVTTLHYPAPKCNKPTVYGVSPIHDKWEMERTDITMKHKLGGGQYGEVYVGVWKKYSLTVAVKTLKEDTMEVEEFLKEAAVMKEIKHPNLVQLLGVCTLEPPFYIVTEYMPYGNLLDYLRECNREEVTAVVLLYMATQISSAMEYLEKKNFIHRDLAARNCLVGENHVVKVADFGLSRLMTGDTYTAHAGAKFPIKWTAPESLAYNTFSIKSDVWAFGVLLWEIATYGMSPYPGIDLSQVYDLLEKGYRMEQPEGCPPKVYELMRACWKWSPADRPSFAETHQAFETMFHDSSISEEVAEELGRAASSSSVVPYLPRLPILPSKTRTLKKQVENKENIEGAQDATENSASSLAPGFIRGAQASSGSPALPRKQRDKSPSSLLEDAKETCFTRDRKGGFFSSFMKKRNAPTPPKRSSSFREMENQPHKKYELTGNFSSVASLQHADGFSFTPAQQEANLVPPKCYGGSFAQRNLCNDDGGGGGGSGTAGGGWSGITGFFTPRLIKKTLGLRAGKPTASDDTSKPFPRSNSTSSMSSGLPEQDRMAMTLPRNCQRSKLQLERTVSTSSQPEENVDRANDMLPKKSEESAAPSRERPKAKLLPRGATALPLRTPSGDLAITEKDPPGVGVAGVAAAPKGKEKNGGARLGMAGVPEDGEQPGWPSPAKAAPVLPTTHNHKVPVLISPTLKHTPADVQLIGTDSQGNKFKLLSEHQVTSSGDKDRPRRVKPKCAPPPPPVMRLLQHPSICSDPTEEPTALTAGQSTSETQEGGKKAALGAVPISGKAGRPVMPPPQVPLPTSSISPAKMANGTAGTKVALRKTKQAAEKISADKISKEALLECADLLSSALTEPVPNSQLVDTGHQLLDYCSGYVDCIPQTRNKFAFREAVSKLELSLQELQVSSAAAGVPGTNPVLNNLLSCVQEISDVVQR
T2 sequence (Q04912 25-1400): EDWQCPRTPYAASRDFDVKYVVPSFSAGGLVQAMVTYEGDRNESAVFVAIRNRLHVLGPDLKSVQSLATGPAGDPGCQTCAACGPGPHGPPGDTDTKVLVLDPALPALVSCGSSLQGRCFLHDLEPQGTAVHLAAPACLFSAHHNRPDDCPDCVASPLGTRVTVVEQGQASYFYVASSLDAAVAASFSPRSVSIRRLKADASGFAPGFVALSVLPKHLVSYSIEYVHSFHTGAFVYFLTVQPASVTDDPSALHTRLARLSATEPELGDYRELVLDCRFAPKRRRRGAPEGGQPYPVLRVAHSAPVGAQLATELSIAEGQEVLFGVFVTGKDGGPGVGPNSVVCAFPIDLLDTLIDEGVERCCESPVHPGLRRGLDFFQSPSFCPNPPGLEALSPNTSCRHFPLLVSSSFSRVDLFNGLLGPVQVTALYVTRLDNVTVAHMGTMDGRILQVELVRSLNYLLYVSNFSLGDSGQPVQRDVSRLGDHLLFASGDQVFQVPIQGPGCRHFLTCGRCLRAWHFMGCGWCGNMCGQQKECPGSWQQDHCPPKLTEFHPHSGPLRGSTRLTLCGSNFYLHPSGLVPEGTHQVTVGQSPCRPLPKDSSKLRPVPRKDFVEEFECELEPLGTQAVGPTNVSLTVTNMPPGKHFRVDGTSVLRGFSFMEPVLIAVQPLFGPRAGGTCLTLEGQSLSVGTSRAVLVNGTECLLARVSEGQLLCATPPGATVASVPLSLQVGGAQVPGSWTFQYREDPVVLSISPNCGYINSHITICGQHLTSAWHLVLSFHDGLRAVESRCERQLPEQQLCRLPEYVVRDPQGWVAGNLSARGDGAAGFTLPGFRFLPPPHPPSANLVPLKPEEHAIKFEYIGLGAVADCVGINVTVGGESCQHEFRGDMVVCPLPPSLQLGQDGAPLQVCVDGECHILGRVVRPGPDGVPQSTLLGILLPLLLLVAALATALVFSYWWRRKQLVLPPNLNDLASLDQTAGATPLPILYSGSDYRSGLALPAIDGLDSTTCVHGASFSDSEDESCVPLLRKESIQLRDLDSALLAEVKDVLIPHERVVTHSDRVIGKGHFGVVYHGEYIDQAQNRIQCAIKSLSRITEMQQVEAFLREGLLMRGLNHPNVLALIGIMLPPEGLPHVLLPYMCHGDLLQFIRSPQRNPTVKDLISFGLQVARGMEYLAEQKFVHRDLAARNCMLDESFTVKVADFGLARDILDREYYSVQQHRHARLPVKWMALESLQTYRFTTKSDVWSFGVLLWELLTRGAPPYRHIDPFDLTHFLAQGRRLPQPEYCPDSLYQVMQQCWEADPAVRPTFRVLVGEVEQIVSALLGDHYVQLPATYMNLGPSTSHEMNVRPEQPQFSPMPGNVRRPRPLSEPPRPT
T4 sequence (P68400 whole entry): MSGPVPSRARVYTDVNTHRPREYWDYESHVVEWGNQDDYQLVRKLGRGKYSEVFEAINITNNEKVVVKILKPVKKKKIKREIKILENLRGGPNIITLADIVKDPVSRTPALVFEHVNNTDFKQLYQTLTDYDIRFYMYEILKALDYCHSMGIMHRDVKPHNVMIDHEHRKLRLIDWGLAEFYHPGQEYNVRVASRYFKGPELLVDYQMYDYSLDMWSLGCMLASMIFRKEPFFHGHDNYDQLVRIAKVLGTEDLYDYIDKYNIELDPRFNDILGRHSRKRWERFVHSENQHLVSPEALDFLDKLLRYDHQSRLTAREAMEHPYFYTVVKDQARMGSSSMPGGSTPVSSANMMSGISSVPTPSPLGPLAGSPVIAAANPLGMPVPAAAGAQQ
T4 sequence (P67870 whole entry partner): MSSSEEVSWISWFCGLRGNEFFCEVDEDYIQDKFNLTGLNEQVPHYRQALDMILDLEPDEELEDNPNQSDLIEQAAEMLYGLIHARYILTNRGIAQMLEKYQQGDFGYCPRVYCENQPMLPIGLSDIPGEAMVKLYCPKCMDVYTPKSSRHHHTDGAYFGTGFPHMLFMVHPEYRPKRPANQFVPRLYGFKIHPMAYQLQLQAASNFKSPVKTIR
T8 sequence (P49841 whole entry): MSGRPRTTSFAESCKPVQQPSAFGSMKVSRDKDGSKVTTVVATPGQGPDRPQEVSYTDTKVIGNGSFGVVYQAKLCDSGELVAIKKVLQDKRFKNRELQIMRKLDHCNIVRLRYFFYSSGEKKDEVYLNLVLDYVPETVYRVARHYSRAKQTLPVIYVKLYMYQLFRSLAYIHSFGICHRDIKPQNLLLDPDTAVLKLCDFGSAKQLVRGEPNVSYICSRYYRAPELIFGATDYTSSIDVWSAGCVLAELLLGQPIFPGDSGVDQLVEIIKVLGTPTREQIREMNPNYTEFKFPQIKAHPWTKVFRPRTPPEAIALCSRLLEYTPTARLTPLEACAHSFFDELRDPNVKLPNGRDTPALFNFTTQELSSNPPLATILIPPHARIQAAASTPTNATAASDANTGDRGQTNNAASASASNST
Sequence of FGFR2 (P21802 22-821): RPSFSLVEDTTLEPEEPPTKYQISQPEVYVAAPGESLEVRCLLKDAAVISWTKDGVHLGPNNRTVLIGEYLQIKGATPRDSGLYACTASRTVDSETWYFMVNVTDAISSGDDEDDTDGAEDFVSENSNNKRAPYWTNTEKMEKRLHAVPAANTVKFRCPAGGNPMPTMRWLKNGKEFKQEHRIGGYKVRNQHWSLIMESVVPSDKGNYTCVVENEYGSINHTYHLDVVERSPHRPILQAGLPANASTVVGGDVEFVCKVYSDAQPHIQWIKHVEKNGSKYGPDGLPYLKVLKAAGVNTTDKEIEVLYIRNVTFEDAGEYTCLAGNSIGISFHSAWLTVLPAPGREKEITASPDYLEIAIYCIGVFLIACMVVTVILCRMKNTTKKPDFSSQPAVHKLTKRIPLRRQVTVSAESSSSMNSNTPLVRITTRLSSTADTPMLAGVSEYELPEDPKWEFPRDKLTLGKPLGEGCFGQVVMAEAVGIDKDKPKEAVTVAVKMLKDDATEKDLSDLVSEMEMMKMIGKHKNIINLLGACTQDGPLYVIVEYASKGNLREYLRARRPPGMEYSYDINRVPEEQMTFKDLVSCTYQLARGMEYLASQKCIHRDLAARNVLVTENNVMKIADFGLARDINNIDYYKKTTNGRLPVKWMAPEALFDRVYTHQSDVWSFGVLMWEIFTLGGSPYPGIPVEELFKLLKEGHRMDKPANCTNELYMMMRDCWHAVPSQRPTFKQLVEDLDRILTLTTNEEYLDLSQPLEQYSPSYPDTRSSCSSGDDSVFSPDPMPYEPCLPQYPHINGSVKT
T1 sequence (P07948 1-491 isoform P07948-2): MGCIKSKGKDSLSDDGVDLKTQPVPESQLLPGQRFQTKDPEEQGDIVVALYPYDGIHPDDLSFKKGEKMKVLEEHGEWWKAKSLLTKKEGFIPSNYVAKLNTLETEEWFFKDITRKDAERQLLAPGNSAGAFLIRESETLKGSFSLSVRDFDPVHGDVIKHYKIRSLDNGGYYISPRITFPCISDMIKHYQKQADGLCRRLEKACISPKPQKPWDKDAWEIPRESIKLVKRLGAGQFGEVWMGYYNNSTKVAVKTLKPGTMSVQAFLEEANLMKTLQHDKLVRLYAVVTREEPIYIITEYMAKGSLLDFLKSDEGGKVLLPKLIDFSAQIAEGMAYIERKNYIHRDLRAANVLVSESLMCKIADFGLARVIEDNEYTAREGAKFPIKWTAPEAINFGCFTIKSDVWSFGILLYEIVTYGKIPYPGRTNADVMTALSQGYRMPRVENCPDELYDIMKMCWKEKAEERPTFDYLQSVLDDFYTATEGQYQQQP

SMILES	IC50 (FGFR2) [nM]	Percentage inhibition of kinase enzyme activity (FGFR2) [%]	Percentage inhibition of kinase enzyme activity (LYNb) [%]	Percentage inhibition of kinase enzyme activity (RON) [%]	Percentage inhibition of kinase enzyme activity (PKD3) [%]	Percentage inhibition of kinase enzyme activity (CK2α1/β) [%]	Percentage inhibition of kinase enzyme activity (MSK2) [%]	Percentage inhibition of kinase enzyme activity (ARG) [%]	IC50 (TEC) [nM]	Percentage inhibition of kinase enzyme activity (TEC) [%]	Percentage inhibition of kinase enzyme activity (GSK3β) [%]	Percentage inhibition of kinase enzyme activity (PAK5) [%]	Percentage inhibition of kinase enzyme activity (p38δ) [%]	Percentage inhibition of kinase enzyme activity (MARK2) [%]	Percentage inhibition of kinase enzyme activity (PKCα) [%]	Percentage inhibition of kinase enzyme activity (PLK3) [%]	Percentage inhibition of kinase enzyme activity (LTK) [%]	inhibition at 1 µM (TEC; read-out: Inhibition of TEC) [%]
O=C(c1ccc(Oc2ccccc2)cc1Cl)c1c[nH]c2ncnc(N[C@@H]3CC[C@@H](CO)OC3)c12 [nemtabrutinib]	34	45.29	66.12	33.63	16.29	-2.75	5.69	62.68	0.75	98.70	-7.92	66.81	-5.79	-4.16	-0.64	5.13		
CC#CC(=O)N1CCC[C@H]1c1nc(-c2ccc(C(=O)Nc3ccccn3)cc2)c2c(N)nccn12 [acalabrutinib]		-6.22	-1.97	7.68	-2.07	5.34	1.53	3.53		95.77	-2.39	-0.37	-1.74	-9.24	-16.89	1.76	10.06	
COc1ccc(F)cc1C(=O)NCc1ccc(-c2nn([C@@H](C)C(F)(F)F)c(N)c2C(N)=O)cc1 [pirtobrutinib]		12.14	26.06	6.55	2.18	-1.74	1.57	-0.47		87.84	-23.01	-1.30	-1.92	2.21	11.69	-1.13	-0.40	> 75
C=CC(=O)N1CCC([C@@H]2CCNc3c(C(N)=O)c(-c4ccc(Oc5ccccc5)cc4)nn32)CC1 [zanubrutinib]		1.70															55.84	
C=CC(=O)N1CCC[C@@H](n2nc(-c3ccc(Oc4ccccc4)cc3)c3c(N)ncnc32)C1 [ibrutinib]		81.29	100.13	6.98	5.48	-11.11	-2.09	6.86		91.92	-4.00	12.42	-3.68	2.67	0.74	1.53	2.76	

— paper PMC12586182 (Frontiers in Oncology, 2025)
